Laboratory results as given in patent US5965560A, “Substituted piperazines and piperidines as central nervous system agents” (priority 1997, dated 1999).
Where a name gives a salt, the structure may show the parent alone.

Assays:
[1] = biological target: human D2 receptor (DA D2) (Homo sapiens, UniProt P14416); assay: inhibition of [^3 H]spiperone binding to the human D2 receptor; conditions: human D2, [^3 H]spiperone
[2] = biological target: human D3 receptor (DA D3) (Homo sapiens, UniProt P35462); assay: inhibition of [^3 H]spiperone binding to the human D3 receptor; conditions: human D3, [^3 H]spiperone
human D3 receptor (DA D3), sequence (P35462 whole entry): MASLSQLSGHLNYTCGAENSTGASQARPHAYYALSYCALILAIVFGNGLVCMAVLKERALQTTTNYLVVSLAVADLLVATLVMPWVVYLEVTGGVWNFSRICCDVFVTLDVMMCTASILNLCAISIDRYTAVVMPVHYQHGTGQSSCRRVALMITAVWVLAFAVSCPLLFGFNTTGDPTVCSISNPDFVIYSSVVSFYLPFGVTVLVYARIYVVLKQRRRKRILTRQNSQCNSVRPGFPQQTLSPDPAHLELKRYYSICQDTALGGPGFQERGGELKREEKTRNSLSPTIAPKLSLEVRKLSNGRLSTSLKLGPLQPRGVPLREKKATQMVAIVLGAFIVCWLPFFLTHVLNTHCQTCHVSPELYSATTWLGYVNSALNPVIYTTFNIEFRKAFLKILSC

[3] = biological target: T1, human D4 dopamine receptor (DA D4) (Homo sapiens, UniProt P21917); assay: inhibition of radioligand binding to the human D4 dopamine receptor
T1 sequence (P21917 1-419): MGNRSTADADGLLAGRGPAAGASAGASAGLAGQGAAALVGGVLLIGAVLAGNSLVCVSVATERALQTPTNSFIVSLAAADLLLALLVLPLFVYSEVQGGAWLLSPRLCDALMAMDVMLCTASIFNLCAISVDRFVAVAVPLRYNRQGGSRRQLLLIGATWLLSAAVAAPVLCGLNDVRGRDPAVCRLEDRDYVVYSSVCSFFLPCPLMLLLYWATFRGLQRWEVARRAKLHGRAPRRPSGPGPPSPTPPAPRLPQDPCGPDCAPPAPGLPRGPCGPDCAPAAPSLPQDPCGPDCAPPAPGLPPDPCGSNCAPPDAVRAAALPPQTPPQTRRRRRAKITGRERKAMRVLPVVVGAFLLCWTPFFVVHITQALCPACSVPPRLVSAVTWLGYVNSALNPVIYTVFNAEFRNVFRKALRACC
Protocol: Compounds were tested for their ability to bind to dopamine receptors as measured by their inhibition of [^3 H]spiperone binding to the human D2, D3 receptors in a receptor assay described by MacKenzie R. G., VanLeeuwen D., Pugsley T. A., et al., "Characterization of the human dopamine D3 receptor expressed in transfected cell lines." Eur. J. Pharmacol.-Mol. Pharmacol., 1994;266:79-85; for the human D4 dopamine receptor in a receptor assay by Pugsley T. A., Davis M. D., Akunne H. C., et al., "CI-1007, a dopamine partial agonist and potential antipsychotic agent. I. Neurochemical Effects." J. Pharmacol. Exp. Ther., 1995;274:898-911; and for ability to block the action of an agonist in a [^3 H]thymidine incorporation assay described by Lajiness N. E., Chio C. L., Huff R. M., "D2 dopamine receptor stimulation of mitogenesis in transfected Chinese hamster ovary cells: relationship to dopamine stimulation of tyrosine phosphorylations." J. Pharmacol. Exp. Ther., 1993;267:1573-81. This test determines the agonist/antagonist character of a compound by measuring [^3 H]thymidine update in Chinese hamster ovary (CHO) pro-5 cells expressing the DA D4 receptor. Agonists, such as quinpirole, promote cell growth and subsequent [^3 H]thymidine incorporation, while antagonists block the action of agonists. […] The above test methods are incorporated herein by reference.

[4] = clozapine, background section; cited from earlier work
[5] = system: DA D4 receptor; conditions: D4 versus D2; Van Tol et al., Nature 1991; cited from earlier work

human D2 receptor (DA D2), sequence (P14416 whole entry): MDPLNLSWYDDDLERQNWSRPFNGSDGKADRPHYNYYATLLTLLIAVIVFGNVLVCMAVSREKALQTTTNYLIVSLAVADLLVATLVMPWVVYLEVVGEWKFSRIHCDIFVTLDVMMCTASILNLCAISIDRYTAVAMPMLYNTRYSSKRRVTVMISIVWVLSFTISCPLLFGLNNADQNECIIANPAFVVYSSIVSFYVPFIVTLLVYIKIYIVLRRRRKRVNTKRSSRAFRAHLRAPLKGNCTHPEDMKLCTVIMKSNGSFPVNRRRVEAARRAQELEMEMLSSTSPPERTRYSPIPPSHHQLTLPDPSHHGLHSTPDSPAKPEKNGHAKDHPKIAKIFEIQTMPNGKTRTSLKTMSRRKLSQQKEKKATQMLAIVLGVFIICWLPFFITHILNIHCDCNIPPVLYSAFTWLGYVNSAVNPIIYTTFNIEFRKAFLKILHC

`COc1ccc(OC)c(CN2CCN(c3cccc(C)c3Cl)CC2)c1` [Example 28, 1-(2-Chloro-3-methylphenyl)-4-(2,5-dimethoxybenzyl)-piperazine, monohydrochloride] showed a Ki [1] of 2.08 µM, a Ki [2] of 0.73 µM and a Ki [3] of 0.0113 µM.
Work on `COc1cc(CN2CCN(c3cccc(Cl)c3C)CC2)cc(OC)c1OC` [Example 19, 1-(3-Chloro-2-methylphenyl)-4-(3,4,5-trimethoxybenzyl)-piperazine, monohydrochloride] yielded a Ki [1] of 1.05 µM, a Ki [2] of 2.12 µM and a Ki [3] of 0.0061 µM.
In the case of `COc1ccc(CN2CCN(c3cccc(C)c3Cl)CC2)cc1OC` [Example 29, 1-(2-Chloro-3-methylphenyl)-4-(3,4-dimethoxybenzyl)-piperazine, monohydrochloride], the Ki [1] is reported as 2.34 µM, the Ki [2] is reported as 1.21 µM and the Ki [3] is reported as 0.005 µM.
With `COc1cc(CN2CCN(c3cccc(C)c3)CC2)cc(OC)c1OC` [Example 7, 1-m-Tolyl-4-(3,4,5-trimethoxybenzyl)piperazine, monohydrochloride] the Ki [1] was 1.46 µM, the Ki [2] was 2.77 µM and the Ki [3] was 0.0086 µM.
Compound `COc1cc(CN2CCN(c3ccc(C)cc3)CC2)cc(OC)c1OC` [Example 8, 1-p-Tolyl-4-(3,4,5-trimethoxybenzyl)piperazine, monohydrochloride] has a Ki [1] of 1.41 µM, a Ki [2] of 6.82 µM and a Ki [3] of 0.0075 µM.
In the case of `COc1cc(CN2CCN(c3cc(Cl)ccc3C)CC2)cc(OC)c1OC` [Example 21, 1-(5-Chloro-2-methylphenyl)-4-(3,4,5-trimethoxybenzyl)-piperazine, monohydrochloride], the Ki [1] is reported as 1.56 µM, the Ki [2] is reported as 3.51 µM and the Ki [3] is reported as 0.0065 µM.
Work on `COc1cccc(CN2CCN(c3cccc(C)c3Cl)CC2)c1OC` [Example 26, 1-(2-Chloro-3-methylphenyl)-4-(2,3-dimethoxybenzyl)-piperazine, monohydrochloride] yielded a Ki [1] of 2.9 µM, a Ki [2] of 2.65 µM and a Ki [3] of 0.0127 µM.
In the case of `COc1cc(CN2CCN(c3ccc(C)c(Cl)c3)CC2)cc(OC)c1OC` [Example 20, 1-(3-Chloro-4-methylphenyl)-4-(3,4,5-trimethoxybenzyl)-piperazine, monohydrochloride], the Ki [1] is reported as 3.29 µM, the Ki [2] is reported as 2.03 µM and the Ki [3] is reported as 0.0045 µM.
For `CN1CCN(C2=Nc3cc(Cl)ccc3Nc3ccccc32)CC1` [clozapine], the “extrapyramidal side effects and tardive dyskinesia” value [4] is listed as “lack of extrapyramidal side effects and tardive dyskinesia” and the “affinity for the DA D4 receptor relative to D2” value [5] is listed as “tenfold higher affinity”.
For `COc1ccc(CN2CCN(c3cccc(C)c3Cl)CC2)c(OC)c1` [Example 27, 1-(2-Chloro-3-methylphenyl)-4-(2,4-dimethoxybenzyl)-piperazine, monohydrochloride], the Ki [1] was 0.762 µM, the Ki [2] was 0.409 µM and the Ki [3] was 0.0044 µM.
